Measured values as given in patent publication US20220227700A1, “HDAC3 CATALYTIC INHIBITOR DEVELOPMENT AND USES THEREOF” (DANA-FARBER CANCER INSTITUTE, INC., priority 2019, published 2022).
Where two headings read alike, the source gives them in different places.

Experiments:
Type in all cases: biochemical
HDAC3 = target: T1, HDAC3 (Homo sapiens, UniProt O15379); experiment: HDAC enzyme assay, HDAC3 (fluorogenic, 384-well); details: for IC50: recombinant full-length HDAC3, 3 hours incubation, substrate MAZ1600 at Km
T1 construct: recombinant, full-length HDAC protein (HDAC1 100 pg/ul, HDAC2 200 pg/ul, HDAC3 100 pg/ul); purchased BPS Biosciences, San Diego, Calif., USA
T1 sequence (O15379 whole entry): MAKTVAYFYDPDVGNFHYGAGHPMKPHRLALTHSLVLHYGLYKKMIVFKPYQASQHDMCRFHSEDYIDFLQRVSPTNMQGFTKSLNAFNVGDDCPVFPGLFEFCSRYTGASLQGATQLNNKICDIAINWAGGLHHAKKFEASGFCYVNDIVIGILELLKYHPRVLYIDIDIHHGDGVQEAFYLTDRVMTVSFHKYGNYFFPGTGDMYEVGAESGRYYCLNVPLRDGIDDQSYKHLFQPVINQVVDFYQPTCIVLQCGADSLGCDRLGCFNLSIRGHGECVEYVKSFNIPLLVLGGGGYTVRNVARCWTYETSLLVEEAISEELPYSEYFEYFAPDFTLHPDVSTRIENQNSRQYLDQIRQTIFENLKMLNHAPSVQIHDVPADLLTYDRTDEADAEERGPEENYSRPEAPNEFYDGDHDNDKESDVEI
T1 sequence (Q9Y618 395-489 partner limits assumed): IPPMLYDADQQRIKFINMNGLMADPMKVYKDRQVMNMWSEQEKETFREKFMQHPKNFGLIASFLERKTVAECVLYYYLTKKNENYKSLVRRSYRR
Protocol: (§1) The inhibitory effect of compounds on HDAC1-HDAC9 function was determined in vitro using an optimized homogenous assay performed in a 384-well plate format. […] Reactions were performed in assay buffer (50 mM HEPES, 100 mM KCl, 0.001% (v/v) Tween 20, 0.05% (w/v) bovine serum albumin, 200 μM TCEP, pH 7.4) and followed for fluorogenic release of 7-amino-4-methylcoumarin from substrate upon deacetylase and trypsin enzymatic activity. Trypsin was present at a final concentration of 50 nM (Worthington Biochemical Corporation). Fluorescence measurements were obtained approximately every 5 min using a multilabel plate reader and plate stacker (Envision, Perkin-Elmer). Data were analyzed on a plate-by-plate basis for the linear range of fluorescence overtime. The first derivative of data obtained from the plate capture corresponding to the mid-linear range was imported into analytical software (Spotfire DecisionSite and GraphPad Prism). Replicate experimental data from incubations with inhibitor were normalized to DMSO controls. IC50 is determined by logistic regression with unconstrained maximum and minimum values.

HDAC2 = target: T2, HDAC2 (Homo sapiens, UniProt Q92769); experiment: HDAC enzyme assay, HDAC2 (fluorogenic, 384-well); details: read-out: IC50 HDAC2 (Tables 4-23, isoform selectivity panel)
T2 construct: recombinant, full-length HDAC protein (HDAC1 100 pg/ul, HDAC2 200 pg/ul); purchased BPS Biosciences, San Diego, Calif., USA
T2 sequence (Q92769 whole entry, canonical isoform): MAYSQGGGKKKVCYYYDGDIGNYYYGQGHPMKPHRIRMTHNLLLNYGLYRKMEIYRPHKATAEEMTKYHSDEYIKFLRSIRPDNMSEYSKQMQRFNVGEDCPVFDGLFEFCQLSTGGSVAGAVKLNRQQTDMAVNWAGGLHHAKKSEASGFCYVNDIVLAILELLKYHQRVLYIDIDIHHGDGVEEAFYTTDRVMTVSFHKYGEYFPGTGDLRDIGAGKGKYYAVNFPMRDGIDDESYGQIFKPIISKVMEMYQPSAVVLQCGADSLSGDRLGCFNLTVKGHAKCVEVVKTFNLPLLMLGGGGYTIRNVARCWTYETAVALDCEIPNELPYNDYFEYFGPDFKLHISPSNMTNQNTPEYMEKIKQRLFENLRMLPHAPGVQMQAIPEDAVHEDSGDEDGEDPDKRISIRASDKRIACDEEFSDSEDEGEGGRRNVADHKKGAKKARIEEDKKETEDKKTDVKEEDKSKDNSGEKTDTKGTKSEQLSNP
Protocol: as §1

HDAC1 = target: T3, HDAC1 (Homo sapiens, UniProt Q13547); experiment: HDAC enzyme assay, HDAC1 (fluorogenic, 384-well); details: read-out: IC50 HDAC1 (Tables 4-23, isoform selectivity panel)
T3 construct: recombinant, full-length HDAC protein (HDAC1 100 pg/ul); purchased BPS Biosciences, San Diego, Calif., USA
T3 sequence (Q13547 whole entry, canonical isoform): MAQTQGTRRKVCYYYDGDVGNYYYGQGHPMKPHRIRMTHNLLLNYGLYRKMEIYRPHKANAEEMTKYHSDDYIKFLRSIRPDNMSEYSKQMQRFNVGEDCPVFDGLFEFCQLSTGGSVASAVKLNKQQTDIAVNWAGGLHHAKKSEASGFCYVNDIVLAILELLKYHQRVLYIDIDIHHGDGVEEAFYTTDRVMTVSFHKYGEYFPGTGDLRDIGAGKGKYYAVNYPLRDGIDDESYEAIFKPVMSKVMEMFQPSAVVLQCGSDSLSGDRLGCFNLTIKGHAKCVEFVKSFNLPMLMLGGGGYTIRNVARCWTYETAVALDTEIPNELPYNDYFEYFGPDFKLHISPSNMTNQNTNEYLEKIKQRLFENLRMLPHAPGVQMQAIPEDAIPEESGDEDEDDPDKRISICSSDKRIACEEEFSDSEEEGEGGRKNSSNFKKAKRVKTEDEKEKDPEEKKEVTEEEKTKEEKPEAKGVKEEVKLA
Protocol: as §1

[1] = FIGS. 4A-4D, read-out: IC50 HDAC3 (Tables 4-23, isoform selectivity panel)
[2] = read-out: IC50 against HDAC3 (Table 3, data of FIG. 2)

SMILES	IC50 (HDAC3; [1]) [nM]	IC50 (HDAC3; [2]) [nM]	IC50 (HDAC2) [nM]	IC50 (HDAC1) [nM]	Selectivity for HDAC3 over other HDAC isoforms (HDAC3; HDAC inhibition assays, FIGS. 1A, 1B, 2, 3)
Nc1cc(F)ccc1NC(=O)c1ccc(C(=O)NC2CCNCC2)cc1 (racemic) [DL-HDAC18]	560	530	880	3490	–
Nc1cc(F)ccc1NC(=O)c1ccc(C(=O)NCc2ccccn2)cc1 [LW3]	–	390	–	–	selectively inhibits HDAC3 over other HDAC isoforms
Nc1cc(F)ccc1NC(=O)c1ccc(C(=O)NCCc2cccnc2)cc1 (racemic) [DL-HDAC20]	330	290	590	1730	–
Nc1cc(F)ccc1NC(=O)c1ccc(C(=O)NCCCBr)cc1 (racemic) [DL-HDAC15]	730	710	1800	3920	–
Nc1cc(F)ccc1NC(=O)c1ccc(C(=O)Nc2ccccc2)cc1 (racemic) [DL-HDAC12]	270	270	360	600	–
Nc1cc(F)ccc1NC(=O)c1ccc(C(=O)Nc2ccc(N3CCOCC3)cc2)cc1 (racemic) [DL-HDAC5]	280	260	440	810	–
Nc1cc(F)ccc1NC(=O)c1ccc(C(=O)Nc2cccc3sccc23)cc1 (racemic) [DL-HDAC4]	260	270	–	–	–
Nc1cc(F)ccc1NC(=O)c1ccc(C(=O)NCCCn2ccnc2)cc1 (racemic) [DL-HDAC19]	290	270	610	2790	–
Cc1cc(NC(=O)c2ccc(C(=O)Nc3ccc(F)cc3N)cc2)n[nH]1 (racemic) [DL-HDAC10]	450	450	850	2070	–
CC(NC(=O)c1ccc(C(=O)Nc2ccc(F)cc2N)cc1)c1ccccc1[N+](=O)[O-] (racemic) [DL-HDAC8]	420	410	660	1650	–
Nc1cc(F)ccc1NC(=O)c1ccc(C(=O)NCc2ccc(Br)cc2)cc1 (racemic) [DL-HDAC13]	120	120	94	200	–
CC(=O)c1ccc(NC(=O)c2ccc(C(=O)Nc3ccc(F)cc3N)cc2)cc1 (racemic) [DL-HDAC17]	170	150	220	1220	–
COc1cc(-c2ccccc2)ccc1NC(=O)c1ccc(C(=O)Nc2ccc(F)cc2N)cc1 (racemic) [DL-HDAC11]	8810	7770	4690	36000	–
Nc1cc(F)ccc1NC(=O)c1ccc(C(=O)NCC(F)(F)F)cc1 (racemic) [DL-HDAC16]	420	390	990	2620	–
Nc1cc(F)ccc1NC(=O)c1ccc(C(=O)Nc2cccc3[nH]ccc23)cc1 (racemic) [DL-HDAC3]	230	230	490	1050	–
Nc1cc(F)ccc1NC(=O)c1ccc(C(=O)Nc2cccc3ncccc23)cc1 (racemic) [DL-HDAC1]	11100	10500	–	–	–
Nc1cc(F)ccc1NC(=O)c1ccc(C(=O)Nc2cccc3cnccc23)cc1 (racemic) [DL-HDAC9]	550	630	930	1550	–
Nc1cc(F)ccc1NC(=O)c1ccc(C(=O)Nc2ccc(Cl)c(C(F)(F)F)c2)cc1 (racemic) [DL-HDAC2]	1330	1330	–	–	–
